# Measurements from US20200239530A1, “COMPOUNDS AND METHODS OF MODULATING PROTEIN DEGRADATION” (Vividion Therapeutics, Inc., priority 2017, published 2020).
# Where two headings read alike, the source gives them in different places.
# Key:
# Experiment in all cases: Competitive cysteine profiling, probe competition (Table 2B)
# Type in all cases: binding
# Q92624 = biological target: T1, Q92624 (Homo sapiens, UniProt Q92624)
# T1 construct: Cells were resuspended in cold PBS on ice and sonicated with a probe sonicator to achieve lysis; endogenous in cells
# T1 sequence (Q92624 1-585): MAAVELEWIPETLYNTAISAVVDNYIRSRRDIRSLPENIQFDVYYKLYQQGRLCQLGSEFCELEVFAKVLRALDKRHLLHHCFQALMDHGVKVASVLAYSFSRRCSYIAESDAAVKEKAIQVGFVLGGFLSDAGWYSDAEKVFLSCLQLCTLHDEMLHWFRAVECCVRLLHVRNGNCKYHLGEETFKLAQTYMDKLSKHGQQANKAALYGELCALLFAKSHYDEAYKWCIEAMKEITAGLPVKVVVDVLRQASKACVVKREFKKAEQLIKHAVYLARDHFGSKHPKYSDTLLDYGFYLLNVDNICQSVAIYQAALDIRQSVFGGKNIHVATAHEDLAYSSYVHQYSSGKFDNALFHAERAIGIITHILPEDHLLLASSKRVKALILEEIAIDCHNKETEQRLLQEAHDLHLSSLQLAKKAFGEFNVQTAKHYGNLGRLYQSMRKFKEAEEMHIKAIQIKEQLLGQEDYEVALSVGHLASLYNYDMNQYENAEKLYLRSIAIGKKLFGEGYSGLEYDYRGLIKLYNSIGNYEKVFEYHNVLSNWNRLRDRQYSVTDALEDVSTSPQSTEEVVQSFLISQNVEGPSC
# Description: (§1) The following 96-well sample prep protocol was used for sample preparation.
# Q9UKV5 = biological target: T2, Q9UKV5 (Homo sapiens, UniProt Q9UKV5)
# T2 construct: Cells were resuspended in cold PBS on ice and sonicated with a probe sonicator to achieve lysis; endogenous in cells
# T2 sequence (Q9UKV5 whole entry): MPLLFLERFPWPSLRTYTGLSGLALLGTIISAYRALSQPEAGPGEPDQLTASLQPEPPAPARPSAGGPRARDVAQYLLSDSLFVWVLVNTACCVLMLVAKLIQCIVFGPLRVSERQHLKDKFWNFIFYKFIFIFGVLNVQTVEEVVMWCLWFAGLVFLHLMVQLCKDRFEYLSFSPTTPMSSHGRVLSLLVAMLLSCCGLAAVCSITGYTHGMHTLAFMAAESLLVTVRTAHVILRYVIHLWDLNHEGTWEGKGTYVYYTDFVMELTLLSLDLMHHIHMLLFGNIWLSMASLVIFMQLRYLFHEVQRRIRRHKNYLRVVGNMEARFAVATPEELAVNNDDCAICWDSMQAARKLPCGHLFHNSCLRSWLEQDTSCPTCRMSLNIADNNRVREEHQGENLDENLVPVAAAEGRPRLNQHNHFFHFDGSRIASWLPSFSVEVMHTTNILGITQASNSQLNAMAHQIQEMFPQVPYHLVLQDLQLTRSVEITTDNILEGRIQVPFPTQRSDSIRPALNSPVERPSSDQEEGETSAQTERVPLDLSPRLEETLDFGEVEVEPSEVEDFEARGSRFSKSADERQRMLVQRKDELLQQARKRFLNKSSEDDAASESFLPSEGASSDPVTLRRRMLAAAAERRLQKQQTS
# Description: as §1
# P60006 = biological target: T3, P60006 (Homo sapiens, UniProt P60006)
# T3 construct: Cells were resuspended in cold PBS on ice and sonicated with a probe sonicator to achieve lysis; endogenous in cells
# Description: as §1
# Q5XKL5 = biological target: T4, Q5XKL5 (Homo sapiens, UniProt Q5XKL5)
# T4 construct: 200 μL of lysate containing 5 mg/ml proteome was treated with 2 μL of 100× compound stock; endogenous in cells
# T4 sequence (Q5XKL5 whole entry): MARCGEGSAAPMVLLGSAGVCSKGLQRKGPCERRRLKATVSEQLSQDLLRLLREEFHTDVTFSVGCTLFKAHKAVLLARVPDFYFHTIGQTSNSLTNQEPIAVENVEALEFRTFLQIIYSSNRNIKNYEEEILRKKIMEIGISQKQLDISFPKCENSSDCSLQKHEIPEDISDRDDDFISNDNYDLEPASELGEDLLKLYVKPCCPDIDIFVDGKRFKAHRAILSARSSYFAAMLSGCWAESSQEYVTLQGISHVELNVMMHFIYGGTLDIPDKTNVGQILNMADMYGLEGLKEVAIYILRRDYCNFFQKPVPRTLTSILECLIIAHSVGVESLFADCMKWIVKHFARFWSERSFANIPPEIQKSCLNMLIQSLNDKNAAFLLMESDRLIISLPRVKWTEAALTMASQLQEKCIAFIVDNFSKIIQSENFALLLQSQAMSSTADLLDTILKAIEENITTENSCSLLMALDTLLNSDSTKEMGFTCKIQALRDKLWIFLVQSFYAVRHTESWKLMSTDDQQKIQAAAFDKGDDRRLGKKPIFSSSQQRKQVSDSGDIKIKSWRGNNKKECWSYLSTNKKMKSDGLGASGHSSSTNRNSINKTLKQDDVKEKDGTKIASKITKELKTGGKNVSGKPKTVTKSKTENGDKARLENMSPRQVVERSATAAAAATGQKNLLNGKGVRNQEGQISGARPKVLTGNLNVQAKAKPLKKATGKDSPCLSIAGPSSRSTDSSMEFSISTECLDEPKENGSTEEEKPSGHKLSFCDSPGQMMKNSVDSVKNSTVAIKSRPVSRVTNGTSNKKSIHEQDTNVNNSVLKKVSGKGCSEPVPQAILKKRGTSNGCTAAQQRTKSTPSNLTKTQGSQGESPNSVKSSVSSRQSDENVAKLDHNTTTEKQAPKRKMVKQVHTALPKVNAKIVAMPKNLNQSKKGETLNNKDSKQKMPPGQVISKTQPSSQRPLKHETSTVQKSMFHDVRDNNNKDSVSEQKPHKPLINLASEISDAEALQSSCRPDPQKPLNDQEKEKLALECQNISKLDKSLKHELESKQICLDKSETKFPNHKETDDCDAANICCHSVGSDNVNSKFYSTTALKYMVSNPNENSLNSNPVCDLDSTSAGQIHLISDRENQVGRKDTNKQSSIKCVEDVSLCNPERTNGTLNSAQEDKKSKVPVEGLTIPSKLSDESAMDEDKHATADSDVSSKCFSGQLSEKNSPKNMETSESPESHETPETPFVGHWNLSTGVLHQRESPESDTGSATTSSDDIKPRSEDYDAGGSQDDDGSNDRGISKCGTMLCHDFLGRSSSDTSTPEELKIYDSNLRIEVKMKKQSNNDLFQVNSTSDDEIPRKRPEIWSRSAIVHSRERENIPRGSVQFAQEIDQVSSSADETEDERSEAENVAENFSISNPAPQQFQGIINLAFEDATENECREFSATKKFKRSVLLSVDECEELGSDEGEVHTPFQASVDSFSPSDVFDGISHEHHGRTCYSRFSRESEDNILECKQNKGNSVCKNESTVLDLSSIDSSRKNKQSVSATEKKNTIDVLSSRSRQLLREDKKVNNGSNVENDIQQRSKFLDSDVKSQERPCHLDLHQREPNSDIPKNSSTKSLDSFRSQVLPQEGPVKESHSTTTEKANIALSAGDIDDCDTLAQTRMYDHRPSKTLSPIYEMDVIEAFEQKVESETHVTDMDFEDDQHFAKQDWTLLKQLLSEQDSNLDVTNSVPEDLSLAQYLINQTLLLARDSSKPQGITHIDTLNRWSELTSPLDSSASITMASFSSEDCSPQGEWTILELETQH
# Description: as §1
# O95376 = biological target: T5, O95376 (Homo sapiens, UniProt O95376); conditions: 500 uM
# T5 construct: Cells were resuspended in cold PBS on ice and sonicated with a probe sonicator to achieve lysis; endogenous in cells
# T5 sequence (O95376 1-493): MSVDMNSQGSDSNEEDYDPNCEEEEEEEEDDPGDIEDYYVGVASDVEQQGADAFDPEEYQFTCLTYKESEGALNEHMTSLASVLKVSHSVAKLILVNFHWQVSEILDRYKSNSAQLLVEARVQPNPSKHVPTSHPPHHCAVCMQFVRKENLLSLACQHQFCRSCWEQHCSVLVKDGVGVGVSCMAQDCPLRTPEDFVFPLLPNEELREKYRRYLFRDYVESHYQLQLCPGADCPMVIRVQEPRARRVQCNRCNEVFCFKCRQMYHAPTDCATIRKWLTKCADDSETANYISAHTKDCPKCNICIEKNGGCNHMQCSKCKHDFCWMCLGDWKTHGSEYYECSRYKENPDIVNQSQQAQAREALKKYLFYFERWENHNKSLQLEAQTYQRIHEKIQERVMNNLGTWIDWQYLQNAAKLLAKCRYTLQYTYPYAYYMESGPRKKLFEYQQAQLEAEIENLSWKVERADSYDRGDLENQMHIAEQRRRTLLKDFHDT
# Description: as §1
# Q9H765 = biological target: T6, Q9H765 (Homo sapiens, UniProt Q9H765)
# T6 construct: 200 μL of lysate containing 5 mg/ml proteome was treated with 2 μL of 100× compound stock; endogenous in cells
# T6 sequence (Q9H765 1-288): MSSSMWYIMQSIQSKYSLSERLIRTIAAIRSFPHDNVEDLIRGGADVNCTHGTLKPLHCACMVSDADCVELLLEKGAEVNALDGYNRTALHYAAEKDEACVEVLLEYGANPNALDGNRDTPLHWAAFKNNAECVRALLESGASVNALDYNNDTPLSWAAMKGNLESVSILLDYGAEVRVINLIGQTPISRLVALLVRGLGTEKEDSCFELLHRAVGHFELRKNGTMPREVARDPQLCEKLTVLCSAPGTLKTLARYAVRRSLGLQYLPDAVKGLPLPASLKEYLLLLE
# Description: as §1
# Q96P09 = biological target: T7, Q96P09 (Homo sapiens, UniProt Q96P09)
# T7 construct: 200 μL of lysate containing 5 mg/ml proteome was treated with 2 μL of 100× compound stock; endogenous in cells
# T7 sequence (Q96P09 1-236): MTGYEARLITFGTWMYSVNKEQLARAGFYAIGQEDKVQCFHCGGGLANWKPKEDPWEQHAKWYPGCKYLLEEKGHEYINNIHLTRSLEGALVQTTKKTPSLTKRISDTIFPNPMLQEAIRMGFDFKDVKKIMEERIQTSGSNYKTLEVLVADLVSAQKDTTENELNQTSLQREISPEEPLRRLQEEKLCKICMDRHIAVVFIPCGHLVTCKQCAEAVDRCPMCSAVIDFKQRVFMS
# Description: as §1
# Q9NYG5 = biological target: T8, Q9NYG5 (Homo sapiens, UniProt Q9NYG5)
# T8 construct: Cells were resuspended in cold PBS on ice and sonicated with a probe sonicator to achieve lysis; endogenous in cells
# T8 sequence (Q9NYG5 whole entry): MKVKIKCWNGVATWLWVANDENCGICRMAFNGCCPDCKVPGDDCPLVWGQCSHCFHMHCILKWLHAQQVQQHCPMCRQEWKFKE
# Description: as §1
# [1] = 500 uM, read-out: KB02_500 uM_percent_inhibition
# [2] = read-out: KB02_100 uM_percent_inhibition
# [3] = 100 uM, read-out: KB02_100 uM_percent_inhibition
# [4] = 100 uM, read-out: KB05_100 uM_percent_inhibition
# [5] = read-out: KB05_100 uM_percent_inhibition
# [6] = 500 uM, read-out: KB05_500 uM_percent_inhibition
compound,measurement,setting,value
COc1ccc2c(c1)CCCN2C(=O)CCl [KB02],inhibition at 500 µM,Q92624; [1],100%
same,inhibition at 100 µM,Q9UKV5; [2],4%
same,inhibition at 500 µM,Q9UKV5; [1],19%
same,inhibition at 100 µM,P60006; [3],44%
same,inhibition at 500 µM,P60006; [1],93%
same,inhibition at 100 µM,Q5XKL5; [3],27%
same,KB02_500 uM_percent_inhibition,O95376,89%
same,inhibition at 100 µM,Q9H765; [3],19%
same,inhibition at 500 µM,Q9H765; [1],54%
same,inhibition at 500 µM,Q96P09; read-out: KB02_500 uM_percent_inhibition,38%
same,inhibition at 100 µM,Q9NYG5; [2],41%
C=CC(=O)N(c1ccccc1)c1ccc(Br)cc1 [KB05],inhibition at 100 µM,Q92624; [4],34%
same,inhibition at 100 µM,Q9UKV5; [5],5%
same,inhibition at 500 µM,Q9UKV5; [6],18%
same,inhibition at 100 µM,P60006; [4],24%
same,inhibition at 500 µM,P60006; [6],74%
same,KB05_500 uM_percent_inhibition,Q5XKL5; 500 uM,55%
same,inhibition at 500 µM,Q5XKL5; [6],37%
same,KB05_500 uM_percent_inhibition,O95376,79%
same,inhibition at 500 µM,Q9H765; [6],37%
same,inhibition at 500 µM,Q96P09; read-out: KB05_500 uM_percent_inhibition,45%
same,inhibition at 100 µM,Q9NYG5; [5],27%
O=C(CCl)Nc1cc(C(F)(F)F)cc(C(F)(F)F)c1 [KBO3],KB03_100 uM_percent_inhibition,Q92624; 100 uM,56%
same,KB03_500 uM_percent_inhibition,Q9UKV5; 500 uM,48%
same,KB03_100 uM_percent_inhibition,P60006; 100 uM,49%
same,KB03_500 uM_percent_inhibition,P60006; 500 uM,65%
same,KB03_500 uM_percent_inhibition,Q5XKL5; 500 uM,18%
same,KB03_500 uM_percent_inhibition,O95376,100%
same,KB03_500 uM_percent_inhibition,Q9H765; 500 uM,40%
same,KB03_500 uM_percent_inhibition,Q96P09; 500 uM,21%
same,KB03_100 uM_percent_inhibition,Q9NYG5; 100 uM,51%
